Assay results as given in patent US8729091B2, “4-phenoxy-nicotinamide or 4-phenoxy-pyrimidine-5-carboxamide compounds” (Hoffmann-La Roche Inc., priority 2010, dated 2014).

molecular target: T1, human GPBAR1 receptor (Homo sapiens, UniProt Q8TDU6); test: functional cAMP assay in CHO-dhfr(minus) cells expressing human GPBAR1 receptors; type: cell-based; conditions: cAMP increase (TR-FRET) in CHO-dhfr(minus) cells expressing human GPBAR1; compounds incubated 30 min at 30° C.
T1 construct: expressed in transfected cells
T1 sequence (Q8TDU6 1-330): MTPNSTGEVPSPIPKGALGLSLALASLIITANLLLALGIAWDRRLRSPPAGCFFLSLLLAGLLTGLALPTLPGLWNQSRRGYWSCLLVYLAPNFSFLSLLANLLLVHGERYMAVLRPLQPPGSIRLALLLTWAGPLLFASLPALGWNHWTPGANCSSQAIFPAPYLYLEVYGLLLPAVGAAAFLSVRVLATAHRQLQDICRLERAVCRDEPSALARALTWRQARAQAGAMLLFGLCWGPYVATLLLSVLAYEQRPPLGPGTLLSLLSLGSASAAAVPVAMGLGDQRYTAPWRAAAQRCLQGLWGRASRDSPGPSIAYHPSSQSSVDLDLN
Protocol: The final clone was verified by DNA sequence analysis. The plasmid was transfected into CHO cells deficient in dihydrofolate reductase activity (CHO-dhfr−) using Lipofectamine plus (Invitrogen). Clones were isolated in limited dilution conditions and identified by activities in the cAMP assay using lithocholic acid as agonist.
The growth medium was exchanged with Krebs Ringer Bicarbonate buffer with 1 mM IBMX and incubated at 30° C. for 30 min. Compounds were added to a final assay volume of 100 μl and incubated for 30 min at 30° C. […] The time-resolved energy transfer is measured by a TRF reader (Evotec Technologies GmbH, Hamburg Germany), equipped with a ND:YAG laser as excitation source.
EC50 values were determined using Activity Base analysis (ID Business Solution, Limited). […] Specificity for GPBAR1 was tested in non-transfected CHO cells in the same assay as above.

Row | EC50 [nM] | Structure (SMILES)
1 | 100 | O=C(NCCS(=O)(=O)O)c1cc(Cl)c(Oc2ccncc2C(=O)N2CCN(C3CC3)c3ccccc32)cc1Cl [Example 35, 2-{2,5-Dichloro-4-[3-(4-cyclopropyl-3,4-dihydro-2H-quinoxaline-1-carbonyl)-pyridin-4-yloxy]-benzoylamino}-ethanesulfonic acid]
2 | 100 | O=C(c1cnccc1Oc1cc(Cl)ccc1Cl)N1CCCc2cc(F)c(F)cc21 [Example 2, [4-(2,5-Dichloro-phenoxy)-pyridin-3-yl]-(6,7-difluoro-3,4-dihydro-2H-quinolin-1-yl)-methanone]
3 | 400 | CC(C)(Oc1cc(Cl)c(Oc2ccncc2C(=O)N2CCN(C3CC3)c3ccccc32)cc1Cl)C(=O)O [Example 61, 2-{2,5-Dichloro-4-[3-(4-cyclopropyl-3,4-dihydro-2H-quinoxaline-1-carbonyl)-pyridin-4-yloxy]-phenoxy}-2-methyl-propionic acid]
4 | 1100 | O=C(c1cc(Cl)c(Oc2ccncc2C(=O)N2CCN(C3CC3)c3ccccc32)cc1Cl)N(CCO)CCO [Example 50, 2,5-Dichloro-4-[3-(4-cyclopropyl-3,4-dihydro-2H-quinoxaline-1-carbonyl)-pyridin-4-yloxy]-N,N-bis-(2-hydroxy-ethyl)-benzamide]
5 | 100 | NC(=O)CCNC(=O)c1cc(Cl)c(Oc2ccncc2C(=O)N2CCN(C3CC3)c3ccccc32)cc1Cl [Example 53, N-(2-Carbamoyl-ethyl)-2,5-dichloro-4-[3-(4-cyclopropyl-3,4-dihydro-2H-quinoxaline-1-carbonyl)-pyridin-4-yloxy]-benzamide]
6 | 1 | Cc1cc(Oc2cc(Cl)ccc2Cl)c(C(=O)N2CCN(C3CC3)c3ccccc32)cn1 [Example 63, (4-Cyclopropyl-3,4-dihydro-2H-quinoxalin-1-yl)-[4-(2,5-dichloro-phenoxy)-6-methyl-pyridin-3-yl]-methanone]
7 | 1700 | CN(C(=O)c1cnccc1Oc1cc(Cl)ccc1Cl)c1cc(F)c(Cl)cc1N(C)C1CC1 [Example 25, N-[4-Chloro-2-(cyclopropyl-methyl-amino)-5-fluoro-phenyl]-4-(2,5-dichloro-phenoxy)-N-methyl-nicotinamide]
8 | 300 | COC(=O)CCC(CCC(=O)OC)NC(=O)c1cc(Cl)c(Oc2ccncc2C(=O)N2CCN(C3CC3)c3ccccc32)cc1Cl [Example 54, 4-{2,5-Dichloro-4-[3-(4-cyclopropyl-3,4-dihydro-2H-quinoxaline-1-carbonyl)-pyridin-4-yloxy]-benzoylamino}-heptanedioic acid dimethyl ester]
9 | 100 | COc1ccc(F)cc1N(C)C(=O)c1cnccc1Oc1cc(Cl)ccc1Cl [Example 12, 4-(2,5-Dichloro-phenoxy)-N-(5-fluoro-2-methoxy-phenyl)-N-methyl-nicotinamide]
10 | 30 | CCOC(=O)COc1cc(Cl)c(Oc2ccncc2C(=O)N2CCN(C3CC3)c3ccccc32)cc1Cl [Example 58, {2,5-Dichloro-4-[3-(4-cyclopropyl-3,4-dihydro-2H-quinoxaline-1-carbonyl)-pyridin-4-yloxy]-phenoxy}-acetic acid ethyl ester]
11 | 4 | COC(=O)c1cc(Cl)c(Oc2ccncc2C(=O)N2CCN(C3CC3)c3ccccc32)cc1Cl [Example 27, 2,5-Dichloro-4-[3-(4-cyclopropyl-3,4-dihydro-2H-quinoxaline-1-carbonyl)-pyridin-4-yloxy]-benzoic acid methyl ester]
12 | 400 | CNc1cc(F)c(F)cc1N(C)C(=O)c1cnccc1Oc1cc(Cl)ccc1Cl [Example 21, 4-(2,5-Dichloro-phenoxy)-N-(4,5-difluoro-2-methylamino-phenyl)-N-methyl-nicotinamide]
13 | 300 | O=C(NC(CO)CO)c1cc(Cl)c(Oc2ccncc2C(=O)N2CCN(C3CC3)c3ccccc32)cc1Cl [Example 51, 2,5-Dichloro-4-[3-(4-cyclopropyl-3,4-dihydro-2H-quinoxaline-1-carbonyl)-pyridin-4-yloxy]-N-(2-hydroxy-1-hydroxymethyl-ethyl)-benzamide]
14 | 500 | O=C(O)COc1cc(Cl)c(Oc2ccncc2C(=O)N2CCN(C3CC3)c3ccccc32)cc1Cl [Example 59, {2,5-Dichloro-4-[3-(4-cyclopropyl-3,4-dihydro-2H-quinoxaline-1-carbonyl)-pyridin-4-yloxy]-phenoxy}-acetic acid]
15 | 3 | N#Cc1cc(Cl)c(Oc2ccncc2C(=O)N2CCN(C3CC3)c3ccccc32)cc1Cl [Example 56, 2,5-Dichloro-4-[3-(4-cyclopropyl-3,4-dihydro-2H-quinoxaline-1-carbonyl)-pyridin-4-yloxy]-benzonitrile]

The remaining lines, values behind:

Row | Structure (SMILES) | EC50 [nM]
16 | O=C(O)CCNC(=O)c1cc(Cl)c(Oc2ccncc2C(=O)N2CCN(C3CC3)c3ccccc32)cc1Cl [Example 34, 3-{2,5-Dichloro-4-[3-(4-cyclopropyl-3,4-dihydro-2H-quinoxaline-1-carbonyl)-pyridin-4-yloxy]-benzoylamino}-propionic acid] | 300
17 | COC(=O)CNC(=O)c1cc(Cl)c(Oc2cc(C)ncc2C(=O)N2CCN(C3CC3)c3ccccc32)cc1Cl [Example 69, {2,5-Dichloro-4-[5-(4-cyclopropyl-3,4-dihydro-2H-quinoxaline-1-carbonyl)-2-methyl-pyridin-4-yloxy]-benzoylamino}-acetic acid methyl ester] | 40
18 | O=C(NCc1nnn[nH]1)c1cc(Cl)c(Oc2ccncc2C(=O)N2CCN(C3CC3)c3ccccc32)cc1Cl [Example 39, 2,5-Dichloro-4-[3-(4-cyclopropyl-3,4-dihydro-2H-quinoxaline-1-carbonyl)-pyridin-4-yloxy]-N-(1H-tetrazol-5-ylmethyl)-benzamide] | 400
19 | Cn1cc(NC(=O)c2cc(Cl)c(Oc3ccncc3C(=O)N3CCN(C4CC4)c4ccccc43)cc2Cl)cc1C(=O)O [Example 42, 4-{2,5-Dichloro-4-[3-(4-cyclopropyl-3,4-dihydro-2H-quinoxaline-1-carbonyl)-pyridin-4-yloxy]-benzoylamino}-1-methyl-1H-pyrrole-2-carboxylic acid] | 100
20 | O=C(c1cnccc1Oc1cc(Cl)ccc1Cl)N1CCNc2ccccc21 [Example 3, [4-(2,5-Dichloro-phenoxy)-pyridin-3-yl]-(3,4-dihydro-2H-quinoxalin-1-yl)-methanone] | 100
21 | Cc1ccccc1N(C)C(=O)c1cnccc1Oc1cc(Cl)ccc1Cl [Example 13, 4-(2,5-Dichloro-phenoxy)-N-methyl-N-o-tolyl-nicotinamide] | 200
22 | Cc1cc(Oc2cc(Cl)c(C(=O)NCCC(=O)O)cc2Cl)c(C(=O)N2CCN(C3CC3)c3ccccc32)cn1 [Example 68, 3-{2,5-Dichloro-4-[5-(4-cyclopropyl-3,4-dihydro-2H-quinoxaline-1-carbonyl)-2-methyl-pyridin-4-yloxy]-benzoylamino}-propionic acid] | 200
23 | O=C(c1cnccc1Oc1cc(Cl)c(Br)cc1Cl)N1CCN(C2CC2)c2ccccc21 [Example 26, [4-(4-Bromo-2,5-dichloro-phenoxy)-pyridin-3-yl]-(4-cyclopropyl-3,4-dihydro-2H-quinoxalin-1-yl)-methanone] | 4
24 | COc1cc(F)c(F)cc1N(C)C(=O)c1cnccc1Oc1cc(Cl)ccc1Cl [Example 19, 4-(2,5-Dichloro-phenoxy)-N-(4,5-difluoro-2-methoxy-phenyl)-N-methyl-nicotinamide] | 100
25 | CCOC(=O)CCNC(=O)c1cc(Cl)c(Oc2cc(C)ncc2C(=O)N2CCN(C3CC3)c3ccccc32)cc1Cl [Example 67, 3-{2,5-Dichloro-4-[5-(4-cyclopropyl-3,4-dihydro-2H-quinoxaline-1-carbonyl)-2-methyl-pyridin-4-yloxy]-benzoylamino}-propionic acid ethyl ester] | 20
26 | COC(=O)CN(C)C(=O)c1cc(Cl)c(Oc2ccncc2C(=O)N2CCN(C3CC3)c3ccccc32)cc1Cl [Example 31, ({2,5-Dichloro-4-[3-(4-cyclopropyl-3,4-dihydro-2H-quinoxaline-1-carbonyl)-pyridin-4-yloxy]-benzoyl}-methyl-amino)-acetic acid methyl ester] | 100
27 | O=C(c1cnccc1Oc1cc(Cl)ccc1Cl)N1CCN(C2CC2)c2cc(Cl)c(F)cc21 [Example 9, (6-Chloro-4-cyclopropyl-7-fluoro-3,4-dihydro-2H-quinoxalin-1-yl)-[4-(2,5-dichloro-phenoxy)-pyridin-3-yl]-methanone] | 50
28 | O=C(c1cnccc1Oc1cc(Cl)ccc1Cl)N1CCN(C2CC2)c2cc(Cl)ccc21 [Example 11, (6-Chloro-4-cyclopropyl-3,4-dihydro-2H-quinoxalin-1-yl)-[4-(2,5-dichloro-phenoxy)-pyridin-3-yl]-methanone] | 10
29 | O=C(c1cncnc1Oc1cc(Cl)ccc1Cl)N1CCCc2cc(F)ccc21 [Example 77, [4-(2,5-Dichloro-phenoxy)-pyrimidin-5-yl]-(6-fluoro-3,4-dihydro-2H-quinolin-1-yl)-methanone] | 400
30 | COc1ncccc1N(C)C(=O)c1cnccc1Oc1cc(Cl)ccc1Cl [Example 15, 4-(2,5-Dichloro-phenoxy)-N-(2-methoxy-pyridin-3-yl)-N-methyl-nicotinamide] | 100
